From patent publication EP0400190A1, “New water-soluble derivatives of nabumetone, a process for their preparation and pharmaceutical compositions which contain them” (MAGIS FARMACEUTICI S.p.A., priority 1989, dated 1990)

Legend:
mice = experiment: Analgesic activity, Writhing test using p-phenylquinone; type: in vivo; details: Mus musculus, po, mice treated orally, read-out: ED₅₀
Description: The analgesic activity was measured by the Writhing test using p-phenylquinone on mice treated orally with the nabumetone enamines in comparison with acetylsalicylic acid, the results showing an ED₅₀ (mg/Kg) for the enamines of about 80 whereas for acetylsalicylic acid the value is about 106.1.

[1] = test system: edema induced in the rat by formalin; experiment: Anti-inflammatory activity on formalin-induced edema; type: in vivo; details: read-out: ED₅₀
Text: The anti-inflammatory activity of these enamines was studied in comparison with acetylsalicylic acid on edema induced in the rat by formalin.

With `CC(=O)Oc1ccccc1C(=O)O` [acetylsalicylic acid] the ED50 (mice) was ~106 mg/kg and the ED50 [1] was ~313 mg/kg.
